# Data from patent US10118947B2, “Modulation of structured polypeptide specificity” (BICYCLE THERAPEUTICS LIMITED, priority 2013, dated 2018).
# Where two headings read alike, the source gives them in different places. Numbered stars: 1 amine (or outer) side, 2 acyl side, 3 side chain; on linkers, the order of the positions; unused ones are H or OH. Bridge positions count the residues as written; N and C are the ends. Square brackets hold non-standard residues; d marks the D form. Peptide text beside a SMILES is read from it. TBMB = c1c(C[*:1])cc(C[*:3])cc1C[*:2]; hArg = N=C(N)NCCCC[C@H](N)C(=O)O; Phg = N[C@H](C(=O)O)c1ccccc1; Tle = CC(C)(C)[C@H](N)C(=O)O; Aze = O=C(O)[C@@H]1CCN1
# Columns and labels:
# [1] = target: T1, human plasma Kallikrein (Homo sapiens, UniProt P03952); assay: Functional enzyme inhibition assay with fluorogenic substrate Z-PheArg-AMC, human plasma Kallikrein; type: biochemical; conditions: Table 26b, loop 1 and loop 2 modified derivatives; read-out: Ki (nM) (human kallikrein)
# T1 construct: purchased Stratech, UK
# Summary of the method: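 Rates of AMC release (excitation 360 nm, emission 460 nm) from 100 μM final Z-PheArg-AMC, 4% DMSO, were taken over the linear phase, typically 5 to 45 minutes. IC50 from four-parameter non-linear regression; Ki also derived.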
# [2] = target: T2, rat plasma Kallikrein (Rattus norvegicus, UniProt P14272); assay: Functional enzyme inhibition assay with fluorogenic substrate Z-PheArg-AMC, rat plasma Kallikrein; type: biochemical; conditions: Table 26b, loop 1 and loop 2 modified derivatives
# T2 construct: polyhistidine tag (N, cleaved yes); proTEV cleavage site (pro-peptide linker) (N, cleaved yes); made in house; host or cells: HEK-293 (suspension-adapted)
# Description: Functional enzyme assays were conducted in 10 mM Tris HCl, 150 mM NaCl, 10 mM MgCl2, 1 mM CaCl2) and 1 mg/mL BSA (all Sigma UK) pH7.4 at 25° C. in solid black 96 well plates. Briefly 26.5 pM human plasma Kallikrein (purchased from Stratech, UK) or 500 pM rat plasma Kallikrein (expressed and purified in house) were incubated in the absence or presence of increasing concentrations of test peptide for 15 minutes before addition of the fluorogenic substrate Z-PheArg-AMC (Enzo Lifesciences UK) to a final assay concentration of 100 μM in 4% DMSO. Release of AMC was measured using a Pherastar FS (BMG Labtech), excitation 360 nm, emission 460 nm. The rate of the linear phase of the reaction, typically 5 to 45 minutes, was calculated in MARS data analysis software (BMG labtech). The rate was then used to calculate the IC50 and Ki in Prism (GraphPad). A four parameter inhibition non-linear regression equation was used to calculate the IC50.
# Peptides were dissolved as the TFA-salts in their powder form, and stock solutions were usually prepared in water. All solutions were centrifuged and filtered ([…] syringe filters) prior absorption measurement at 280 nm. Extinction coefficients were calculated based on the Trp/Tyr content of the peptide, and that of TMB (the TMB core, when contained in a peptide, has an ε of ˜300 M^−1cm^−1). For peptides containing non-natural amino acids with suspected chromophoric properties (i.e. NorHar, 4PhenylPro, 3Pal, 4Pal, Tic, 4GuanPhe, 4,4-BPAI, 3,3-DPA, 1NAI, 2NAI, 4BenzylPro, Ind) concentrations were determined by weighing the powder and dissolving the peptide in a defined quantity of water.
# [3] = target: T2, rat plasma Kallikrein; conditions: Table 1; read-out: Ki (nM) (rat kallikrein); cited from earlier work
# T2 sequence (P14272 391-638 limits assumed): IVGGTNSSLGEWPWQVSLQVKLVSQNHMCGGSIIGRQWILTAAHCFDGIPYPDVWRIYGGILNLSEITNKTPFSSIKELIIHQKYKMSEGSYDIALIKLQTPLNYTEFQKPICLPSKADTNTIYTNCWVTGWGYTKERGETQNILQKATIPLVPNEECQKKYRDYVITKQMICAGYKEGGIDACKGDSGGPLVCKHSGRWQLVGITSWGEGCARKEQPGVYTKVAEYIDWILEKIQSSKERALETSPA
# T1 sequence (P03952 20-638): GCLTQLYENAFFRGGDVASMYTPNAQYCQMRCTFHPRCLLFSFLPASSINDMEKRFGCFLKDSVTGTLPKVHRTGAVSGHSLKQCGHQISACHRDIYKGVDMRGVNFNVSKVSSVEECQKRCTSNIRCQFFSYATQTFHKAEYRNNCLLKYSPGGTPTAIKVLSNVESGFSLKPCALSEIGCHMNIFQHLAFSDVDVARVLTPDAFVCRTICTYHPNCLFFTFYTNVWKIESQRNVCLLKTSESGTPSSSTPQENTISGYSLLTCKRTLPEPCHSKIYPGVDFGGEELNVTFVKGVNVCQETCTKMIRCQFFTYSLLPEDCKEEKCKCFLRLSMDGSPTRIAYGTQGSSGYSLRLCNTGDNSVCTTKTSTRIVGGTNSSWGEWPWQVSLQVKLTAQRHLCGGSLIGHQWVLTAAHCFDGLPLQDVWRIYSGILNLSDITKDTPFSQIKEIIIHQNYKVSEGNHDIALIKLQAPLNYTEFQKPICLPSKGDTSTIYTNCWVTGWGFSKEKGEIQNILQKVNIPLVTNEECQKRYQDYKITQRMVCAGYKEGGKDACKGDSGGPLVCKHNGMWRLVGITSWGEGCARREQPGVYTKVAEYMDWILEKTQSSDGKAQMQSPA
Compound,Ki [1],Ki [2],Ki [3]
CC(=O)N[C@H]1CSCc2cc3cc(c2)CSC[C@H](NC(=O)[C@H](CCCCNC(=N)N)NC(=O)[C@H](Cc2ccc(O)cc2)NC(=O)[C@@H]2CCN2C(=O)[C@H](Cc2ccccc2)NC(=O)[C@H](CO)NC1=O)C(=O)N[C@@H](C)CN[C@@H](Cc1c[nH]cn1)C(=O)N[C@@H](CCC(N)=O)C(=O)N[C@@H](CC(=O)O)C(=O)N[C@@H](CC(C)C)C(=O)N[C@H](C(N)=O)CSC3,0.44 nM,41 nM,–
CC(=O)N[C@H]1CSCc2cc3cc(c2)CSC[C@H](NC(=O)[C@H](CCCCNC(=N)N)NC(=O)[C@H](C)NC(=O)[C@@H]2CCN2C(=O)[C@H](Cc2c[nH]c4ccccc24)NC(=O)[C@H](CO)NC1=O)C(=O)N[C@@H](c1ccccc1)C(=O)N[C@@H](Cc1c[nH]cn1)C(=O)N[C@@H](CCC(N)=O)C(=O)N[C@@H](CC(=O)O)C(=O)N[C@@H](CC(C)C)C(=O)N[C@H](C(N)=O)CSC3 [Ac-(06-34-18) Aze3 HArg5 Phg6] (Ac-CSW[Aze]A[hArg]C[Phg]HQDLC-NH2; linker 1-7-13 via TBMB),0.52 nM,57 nM,–
CC(=O)N[C@H]1CSCc2cc3cc(c2)CSC[C@H](NC(=O)[C@H](CCCCNC(=N)N)NC(=O)[C@H](Cc2ccc(O)cc2)NC(=O)[C@@H]2CCN2C(=O)[C@H](Cc2ccccc2)NC(=O)[C@H](CO)NC1=O)C(=O)N[C@@H](CC(C)C)C(=O)N[C@@H](Cc1c[nH]cn1)C(=O)N[C@@H](CCC(=O)O)C(=O)N[C@@H](CC(=O)O)C(=O)N[C@@H](CC(C)C)C(=O)N[C@H](C(N)=O)CSC3 [Ac-(06-34-18) Phe2 Aze3 Tyr4 HArg5 Glu8] (Ac-CSF[Aze]Y[hArg]CLHEDLC-NH2; linker 1-7-13 via TBMB),1.65 nM,23 nM,–
CC(=O)N[C@H]1CSCc2cc3cc(c2)CSC[C@H](NC(=O)[C@H](CCCCNC(=N)N)NC(=O)[C@H](Cc2ccc(O)cc2)NC(=O)[C@@H]2CCN2C(=O)[C@H](Cc2ccccc2)NC(=O)[C@H](CO)NC1=O)C(=O)N[C@@H](CC(C)C)C(=O)N[C@@H](Cc1c[nH]cn1)C(=O)N[C@@H](CCC(N)=O)C(=O)N[C@@H](CC(=O)O)C(=O)N[C@@H](CC(C)C)C(=O)N[C@H](C(N)=O)CSC3 [Ac-(06-34-18) Phe2 Aze3 Tyr4 HomoArg5] (Ac-CSF[Aze]Y[hArg]CLHQDLC-NH2; linker 1-7-13 via TBMB),–,–,3 nM

# Continued, in another order:
Ki [1],Ki [2],Compound,Ki [3]
0.32 nM,12 nM,CC(=O)N[C@H]1CSCc2cc3cc(c2)CSC[C@H](NC(=O)[C@H](CCCCNC(=N)N)NC(=O)[C@H](Cc2ccc(O)cc2)NC(=O)[C@@H]2CCN2C(=O)[C@H](Cc2ccccc2)NC(=O)[C@H](CO)NC1=O)C(=O)N[C@@H](c1ccccc1)C(=O)N[C@@H](Cc1c[nH]cn1)C(=O)N[C@@H](CCC(N)=O)C(=O)N[C@@H](CC(=O)O)C(=O)N[C@@H](CC(C)C)C(=O)N[C@H](C(N)=O)CSC3 [Ac-(06-34-18) Phe2 Aze3 Tyr4 HArg5 Phg6] (Ac-CSF[Aze]Y[hArg]C[Phg]HQDLC-NH2; linker 1-7-13 via TBMB),–
1.91 nM,193 nM,CC(=O)N[C@H]1CSCc2cc3cc(c2)CSC[C@H](NC(=O)[C@H](CCCNC(=N)N)NC(=O)[C@H](Cc2ccc(O)cc2)NC(=O)[C@@H]2CCN2C(=O)[C@H](Cc2ccccc2)NC(=O)[C@H](CO)NC1=O)C(=O)N[C@@H](C(C)(C)C)C(=O)N[C@@H](Cc1c[nH]cn1)C(=O)N[C@@H](CCC(N)=O)C(=O)N[C@@H](CC(=O)O)C(=O)N[C@@H](CC(C)C)C(=O)N[C@H](C(N)=O)CSC3 [Ac-(06-34-18) Phe2 Aze3 Tyr4 tBuGly6] (Ac-CSF[Aze]YRC[Tle]HQDLC-NH2; linker 1-7-13 via TBMB),–
